Values of other authors in patent US20030073115A1 (priority 2002, published 2003).

What was measured:
[1] = tested on: Galanin receptors in the dorsal hippocampus
[2] = tested on: CNS galanin receptors; details: CNS / brain
[3] = tested on: gastrointestinal smooth muscle

affinity [1] | Compound | activity at CNS galanin receptors [2] | activity in gastrointestinal smooth muscle [3]
high affinity | Gal (1-15): galanin fragment 1-15 |  | 
 | CSCC[C@H](NC(=O)[C@H](CC(C)C)NC(=O)CNC(=O)[C@H](Cc1ccccc1)NC(=O)[C@H](Cc1ccccc1)NC(=O)[C@H](CCC(N)=O)NC(=O)[C@H](CCC(N)=O)NC(=O)[C@@H]1CCCN1C(=O)CNC(=O)[C@H](CC(C)C)NC(=O)[C@H](CC(C)C)NC(=O)[C@H](Cc1ccc(O)cc1)NC(=O)CNC(=O)[C@H](C)NC(=O)[C@H](CO)NC(=O)[C@H](CC(N)=O)NC(=O)[C@H](CC(C)C)NC(=O)[C@@H](NC(=O)[C@H](Cc1c[nH]c2ccccc12)NC(=O)CN)[C@@H](C)O)C(N)=O [M15] | antagonist | full agonist
